Counter-ions that a name gives are not always drawn.
Legend:
[1] = Antioxidant assay by DPPH radical scavenging activity; assay type: biochemical
[2] = system: Tyrosinase; test: Activity on Tyrosinase (inhibition); assay type: biochemical
From the text: Tyrosinase inhibition is one of the established in vitro methods of evaluating the skin fairness property.

[3] = molecular target: Collagenase; test: Collagenase inhibition; assay type: biochemical
[4] = molecular target: Elastase; test: Elastase inhibition; assay type: biochemical
[5] = system: Propionibacterium acnes; test: Inhibition of P. acnes (zone of inhibition); assay type: cell-based; conditions: for Zone of inhibition: P. acnes
[6] = Solubility data; assay type: physicochemical; conditions: Results in gm/dl; 35 to 40° C.
Method: Results in gm/dl; tests were done at 35 to 40° C. temperature.

[7] = Hygroscopicity of the solid salt; assay type: physicochemical; conditions: solid salt form
[8] = Exposure to sun light for 5 minutes, Conc. 55 μg
[9] = Absence of sun light, Conc. 6.6 mg

Structure (SMILES) | melting point | IC50 for Collagenase [3] | IC50 for Elastase [4] | Minimum concentration showing inhibition of P. acnes [5] | Zone of inhibition ([5]; Conc. of the sample 0.5%) | Zone of inhibition ([5]; Conc. of the sample 1%) | Zone of inhibition ([5]; Conc. of the sample 2%) | Zone of inhibition ([5]; Conc. of the sample 5%) | Zone of inhibition ([5]; Conc. of the sample 10%) | Solubility, ETHANOL (95%) [6] | Solubility, PROPYLENE GLYCOL [6] | Solubility, WATER (D. D.) [6] | % Scavenging (DPPH) [1, 8] | Tyrosinase % Inhibition ([2]; Conc. 120 μg) | other results
CN(C)CCNC(=O)CCCCC1CCSS1 (racemic) (as salt: maleate) [LA Plus maleate, (±)-Maleate salt of N-[2-(dimethylamino)ethyl]-1,2-dithiolane-3-pentanamide] | 125 to 127 °C |  |  |  |  |  |  |  |  |  |  |  |  |  | 
O=C(O)CCCCC1CCSS1 (racemic) [α-Lipoic acid, Alpha Lipoic acid, reference compound] |  | 1600 µg/mL | 1400 µg/mL | 5% | 0 mm | 0 mm | 0 mm | 7 mm | 8 mm |  |  |  |  |  | % Scavenging (DPPH) ([1]; Absence of sun light, Conc. 6 mg): 50%; % Scavenging (DPPH) ([1]; Exposure to sun light for 5 minutes, Conc. 45 μg): 50%; Tyrosinase % Inhibition ([2]; Conc. 100 μg): 51%
O=C1O[C@H]([C@@H](O)CO)C(O)=C1O [Ascorbic acid, reference compound] |  |  |  |  |  |  |  |  |  |  |  |  |  |  | % Scavenging (DPPH) ([1]; Absence of sun light, Conc. 6 μg): 71%; % Scavenging (DPPH) ([1]; Exposure to sun light for 5 minutes, Conc. 6 μg): 59%
CN(C)CCNC(=O)CCCCC1CCSS1.O=C(O)/C=C/C(=O)O (racemic) [LA Plus fumarate, (±)-Fumarate salt of N-[2-(dimethylamino)ethyl]-1,2-dithiolane-3-pentanamide] | 76 to 78 °C | 1600 µg/mL | 1400 µg/mL | 2% | 0 mm | 0 mm | 7 mm | 8 mm | 10 mm | 51% | 23% | 100% | 50% | 53% | % Scavenging (DPPH) ([1]; Absence of sun light, Conc. 6.2 mg): 57%
CN(C)CCNC(=O)CCCCC1CCSS1.O=C(O)/C=C\C(=O)O (stereo not drawn) [R(+)LA Plus maleate, R-(+)-Maleate salt of N-[2-(dimethylamino)ethyl]-1,2-dithiolane-3-pentanamide] | 125 to 127 °C | 1600 µg/mL | 1400 µg/mL | 1.0% | 0 mm | 8 mm | 10 mm | 12 mm | 15 mm | 6.84% | 10% | 60% | 47% | 58.6% | % Scavenging (DPPH) [1, 9]: 49%
CN(C)CCNC(=O)CCCCC1CCSS1 (racemic) [LA Plus maleate, (±)-Maleate salt of N-[2-(dimethylamino)ethyl]-1,2-dithiolane-3-pentanamide] |  | 1600 µg/mL | 1400 µg/mL | 1.0% | 0 mm | 7 mm | 8 mm | 9 mm | 11 mm | 7.35% | 13% | 60% | 53% | 58% | % Scavenging (DPPH) [1, 9]: 54%
CCC[C@@H]1C[C@@H](C(=O)N[C@@H]([C@H]2O[C@H](SC)[C@H](O)[C@@H](O)[C@H]2O)[C@H](C)Cl)N(C)C1 [Clindamycin, reference compound] |  |  |  |  | 0 mm | 7 mm | 9 mm | 15 mm | 20 mm |  |  |  |  |  | 
CN(C)CCNC(=O)CCCCC1CCSS1.Cl (racemic) [(±)-LA-Plus hydrochloride, N-[2-(dimethylamino)ethyl]-1,2-dithiolane-3-pentanamide monohydrochloride] |  |  |  |  |  |  |  |  |  |  |  |  |  |  | Hygroscopicity [7]: hygroscopic
